Measured values as given in US20100323990A1, “SHIP 1 MODULATOR PRODRUGS” (THE UNIVERSITY OF BRITISH COLUMBIA, priority 2006, published 2010).

What was measured:
Assay type in all cases: cell-based
Mast cells = test: Stimulation of mast cells by FcεRI crosslinking (Assay 4); conditions: test compound 30 min prior to DNP-HSA
Procedure: Assay 1) In vitro testing in a SHIP enzyme assay. Test compounds were dissolved in a suitable solvent (e.g. EtOH, DMSO and others) and diluted into aqueous buffer (20 mM Tris HCl, pH 7.5 and 10 mM MgCl2). SHIP enzyme assays were performed in 96-well microtitre plates with 10 ng of enzyme/well in a total volume of 25 μL of 20 mM Tris HCl, pH 7.5 and 10 mM MgCl2. SHIP enzyme was incubated with test extracts (provided in solvent) or vehicle for 15 min at 23° C. before the addition of 100 μM inositol-1,3,4,5-tetrakisphosphate (Echelon Biosciences Inc, Salt Lake City, Utah). After 20 min at 37° C. and the amount of inorganic phosphate released assessed by the addition of Malachite Green reagent and absorbance measurement at 650 nm. Assay 2) Macrophage TNF-α production. J774.1a macrophage cells were treated with 10 μg/mL of test compound dissolved in solvent (e.g. cyclodextran) for 40 minutes prior to the addition of 100 ng/mL LPS. Culture supernatants were collected after 2 hr and 5 hr for TNF-α determination by ELISA. Assay 3) Macrophage TNF-α NO assay. J774.1a macrophage cells were treated with 10 μg/ml of test compound dissolved in solvent for 40 minutes prior to the addition of LPS. Culture supernatants were collected after 24 hr. for determination of NO concentration using the Griess reagent. Assay 4) Stimulation of mast cells by FcεRI crosslinking. Mast cells were pre-loaded overnight in BMMC medium lacking IL-3 with 0.1 μg/ml anti-DNP IgE (SPE-7, Sigma, Oakville, Ont). For calcium flux measurements, cells were incubated with 2 μM fura 2-acetoxymethyl ester (Molecular Probes, Eugene, Oreg.) in Tyrode's buffer at 23° C. for 45 min. Cells were then washed and incubated in the presence of the test compound 30 min prior to stimulation with the indicated concentration of DNP-human serum albumin (DNP-HSA). Calcium influx was monitored by spectrofluorometry as described previously. For analysis of intracellular signaling, cells were pre-loaded with anti-DNP IgE as above, pre-treated with the test compound for 30 min at 37° C. and stimulated with 20 ng/ml DNP-HSA for 5 min. Total cell lysates were then prepared and analyzed for phospho-PKB, phospho-p38^MAPK, phospho-MAPK, Grb-2 (Cell Signalling, Mississauga, Ont) and SHIP^6 by immunoblot analysis. Assay 5) Mouse acute cutaneous anaphylaxis model. […] The ability of SHIP activators to reduce tumor cell survival was assessed in MM cell lines treated with the test compound. The lines OPM1, OPM2, MM.1S and RPMI 8226 were plated at a density of 1×10^5 cells/mL in 200 μL of medium with various concentrations of the test compound, and viable cell numbers were determined on day 3 and day 5 by trypan blue exclusion. […]

MM cell lines = test: In vitro Multiple Myeloma (MM) assay (Assay 7); conditions: viable cell number by trypan blue; [3H]-thymidine; further: key: a ‘+’ indicates a positive result for desired activity; a ‘−’ indicates a negative result for desired activity
Procedure: (§1) Assay 1) In vitro testing in a SHIP enzyme assay. Test compounds were dissolved in a suitable solvent (e.g. EtOH, DMSO and others) and diluted into aqueous buffer (20 mM Tris HCl, pH 7.5 and 10 mM MgCl2). SHIP enzyme assays were performed in 96-well microtitre plates with 10 ng of enzyme/well in a total volume of 25 μL of 20 mM Tris HCl, pH 7.5 and 10 mM MgCl2. SHIP enzyme was incubated with test extracts (provided in solvent) or vehicle for 15 min at 23° C. before the addition of 100 μM inositol-1,3,4,5-tetrakisphosphate (Echelon Biosciences Inc, Salt Lake City, Utah). After 20 min at 37° C. and the amount of inorganic phosphate released assessed by the addition of Malachite Green reagent and absorbance measurement at 650 nm. Assay 2) Macrophage TNF-α production. J774.1a macrophage cells were treated with 10 μg/mL of test compound dissolved in solvent (e.g. cyclodextran) for 40 minutes prior to the addition of 100 ng/mL LPS. Culture supernatants were collected after 2 hr and 5 hr for TNF-α determination by ELISA. Assay 3) Macrophage TNF-α NO assay. J774.1a macrophage cells were treated with 10 μg/ml of test compound dissolved in solvent for 40 minutes prior to the addition of LPS. Culture supernatants were collected after 24 hr. for determination of NO concentration using the Griess reagent. Assay 4) Stimulation of mast cells by FcεRI crosslinking. Mast cells were pre-loaded overnight in BMMC medium lacking IL-3 with 0.1 μg/ml anti-DNP IgE (SPE-7, Sigma, Oakville, Ont). For calcium flux measurements, cells were incubated with 2 μM fura 2-acetoxymethyl ester (Molecular Probes, Eugene, Oreg.) in Tyrode's buffer at 23° C. for 45 min. Cells were then washed and incubated in the presence of the test compound 30 min prior to stimulation with the indicated concentration of DNP-human serum albumin (DNP-HSA). Calcium influx was monitored by spectrofluorometry as described previously. For analysis of intracellular signaling, cells were pre-loaded with anti-DNP IgE as above, pre-treated with the test compound for 30 min at 37° C. and stimulated with 20 ng/ml DNP-HSA for 5 min. Total cell lysates were then prepared and analyzed for phospho-PKB, phospho-p38^MAPK, phospho-MAPK, Grb-2 (Cell Signalling, Mississauga, Ont) and SHIP^6 by immunoblot analysis. Assay 5) Mouse acute cutaneous anaphylaxis model. 6-8 week old CD1 mice (University of British Columbia Animal Facility, Vancouver, BC) were sensitized to the hapten DNP by cutaneous application of 25 μL of 0.5% dinitrofluorobenzene (DNFB) (Sigma, Oakville, Ont) in acetone to the shaved abdomen of mice for two consecutive days. 24 hrs later, test substances (dissolved in 10 μL of 1:2 DMSO:MeOH) were painted on the right ear while the left ear received vehicle control. 30 min after drug application, DNFB was applied to both ears to induce mast cell degranulation. A 6 mm punch was taken from the ear and immediately frozen on dry ice for subsequent determination of neutrophil myeloperoxidase (MPO) activity. Assay 6) Mouse endotoxemia model. 6-8 week old C57B16 mice (VCHRI Mammalian Model of Human Disease Core Facility, Vancouver, BC) were orally administered the test compound 30 min prior to an IP injection of 2 mg/kg of LPS (E. Coli serotype 0111:B4, Sigma, Oakville, Ont). Blood was drawn 2 hrs later for determination of plasma TNFα by ELISA. Assay 7) In vitro Mulitple Myeloma (MM) assay. The ability of SHIP activators to reduce tumor cell survival was assessed in MM cell lines treated with the test compound. The lines OPM1, OPM2, MM.1S and RPMI 8226 were plated at a density of 1×10^5 cells/mL in 200 μL of medium with various concentrations of the test compound, and viable cell numbers were determined on day 3 and day 5 by trypan blue exclusion. The lines RPMI 8226 and U266 were plated at a density of 1×10^6 cells/mL in 250 μL of medium with various concentrations of the test compound. At day 4, the medium of each culture was replaced by fresh medium containing the same concentration of test compound. […]

J774.1a macrophage cells [1] = test: Macrophage TNF-α NO assay (Assay 3), Griess reagent; conditions: 10 μg/ml test compound, LPS, supernatants after 24 hr; further: key: a ‘+’ indicates a positive result for desired activity; a ‘−’ indicates a negative result for desired activity
Procedure: as §1

J774.1a macrophage cells [2] = test: Macrophage TNF-α production (Assay 2); conditions: 10 μg/mL test compound, 100 ng/mL LPS, supernatants after 2 hr and 5 hr; further: key: a ‘+’ indicates a positive result for desired activity; a ‘−’ indicates a negative result for desired activity
Procedure: as §1

Cc1cc(O)cc2c1[C@@]1(C)CCC3C(C)(C)CCC[C@]3(C)[C@H]1C2 (some centres unmarked) [Compound 125]
+: Assay 4: Stimulation of mast cells by FcεRI crosslinking, desired activity (Mast cells) | Assay 7: In vitro Multiple Myeloma (MM) assay, desired activity (MM cell lines) | Assay 3: Macrophage NO assay, desired activity (J774.1a macrophage cells [1]) | Assay 2: Macrophage TNF-α production, desired activity (J774.1a macrophage cells [2])

Cc1cc(O)cc2c1[C@]1(C)CCC3C(C)(C)CCC[C@]3(C)[C@@H]1C2 (some centres unmarked) [Compound 124]
+: Assay 4: Stimulation of mast cells by FcεRI crosslinking, desired activity (Mast cells) | Assay 7: In vitro Multiple Myeloma (MM) assay, desired activity (MM cell lines) | Assay 3: Macrophage NO assay, desired activity (J774.1a macrophage cells [1]) | Assay 2: Macrophage TNF-α production, desired activity (J774.1a macrophage cells [2])
